Experimental data reported in publication PMC10279640 (Nature Communications, 2023).
Square brackets hold non-standard residues; d marks the D form. Peptide text beside a SMILES is read from it. sY = N[C@@H](Cc1ccc(OS(=O)(=O)O)cc1)C(=O)O

Columns and labels:
PvDBP-RII = PvDBP-RII (Plasmodium vivax, UniProt P22290, S353A/T257A/T422A); assay: biochemical; type: binding
[1] = test system: P. knowlesi PvDBP^OR/PkDBPβγ^KO; settings: PvDBP-expressing P. knowlesi, at the concentrations tested
[2] = test system: P. knowlesi wild-type A1-H.1

| Molecule | Kd (PvDBP-RII) [µM] | growth inhibition (in words) [1] | growth inhibition (in words) [2] |
| --- | --- | --- | --- |
| CC(=O)N[C@@H](CCC(N)=O)C(=O)N[C@@H](CC(C)C)C(=O)N[C@@H](CC(=O)O)C(=O)N[C@@H](Cc1ccccc1)C(=O)N[C@@H](CCC(=O)O)C(=O)N[C@@H](CC(=O)O)C(=O)N[C@H](C(=O)N[C@@H](Cc1c[nH]c2ccccc12)C(=O)N[C@@H](CC(N)=O)C(=O)N[C@@H](CO)C(=O)N[C@@H](CO)C(=O)N[C@@H](Cc1ccc(OS(=O)(=O)O)cc1)C(=O)NCC(=O)N[C@H](C(=O)N[C@@H](CC(N)=O)C(=O)N[C@@H](CC(=O)O)C(=O)N[C@@H](CO)C(=O)N[C@@H](Cc1ccccc1)C(=O)N1CCC[C@H]1C(=O)N[C@@H](CC(=O)O)C(=O)NCC(=O)N[C@@H](CC(=O)O)C(=O)N[C@@H](Cc1ccc(O)cc1)C(=O)N[C@@H](CC(=O)O)C(=O)N[C@@H](C)C(=O)N[C@@H](CC(N)=O)C(=O)N[C@@H](CC(C)C)C(=O)N[C@@H](CCC(=O)O)C(=O)N[C@@H](CC(C)C)C(N)=O)C(C)C)C(C)C [Y30-S] (Ac-QLDFEDVWNSS[sY]GVNDSFPDGDYDANLEL-NH2) | 0.552 |  |  |
| Ac-QLDFEDVWNSSYGVNDSFPDGDYDANLEL-NH2 [non-sulfated] |  | no growth inhibition observed | no inhibition observed |
